# System: Streptococcus aureus
# Test: Sterilization effect of hydrogen peroxide photolysis (laser 400±20 nm) with catalase activity inhibitor, viable count on BHI agar
# Format: cell-based
# Settings: only hydrogen peroxide, no laser, no scutellaria, H(+)L(−)O(−); FIG. 4
# Procedure: An experiment for examining an effect of the catalase activity inhibitor of enhancing a sterilization effect was conducted. In the experiment, […] which is a catalase-positive bacterium was used as a target of the sterilization. A bacterium suspension having a concentration of 10^7 cells/mL was prepared by using the bacterium and saline, and the suspension was used for the experiment. A semiconductor laser (product name: […] Experiment samples were prepared by using scutellaria as the catalase activity inhibitor, diluting the scutellaria with ultrapure water, followed by sterilization by filtration through a 0.22 μm filter, and then adding the scutellaria solution to the mixture liquids of bacterium suspension and hydrogen peroxide to attain final scutellaria concentrations of 0, 1, and 3 mg/mL. [table] The laser irradiation was performed immediately after preparing the experiment samples, and 50 μL of the sample after the irradiation and 50 μL of 5000 U/mL catalase were mixed to stop the reaction of hydrogen peroxide. After that, a 10-fold dilution series was prepared and was seeded on a BHI agar culture medium, followed by culturing under an aerophilic condition of 37° C. for 24 hours, and then evaluation of the sterilization effect was conducted. […]
smiles,measurement,value
OO [hydrogen peroxide],sterilization effect,no sterilization effect
